{
  "source": "patent US20150329512A1",
  "about": "“METHOD AND PHARMACEUTICAL COMPOSITION FOR TREATING LUNG CANCER” (National Dong Hua University, priority 2014, published 2015)",
  "type_in_all_cases": "cell-based, human",
  "key": {"A549 cells [1]": {"test_system": "A549 cells", "assay": "MTT assay, cell viability", "conditions": "Homo sapiens, 24 hr treatment", "protocol": "(§1) A549 (lung cancer cell line, non-resistance) and Anti-Dox-A549 (lung cancer cell line with resistance to Doxorubicin) were maintained in DMEM supplemented with 10% fetal bovine serum (FBS, Gibco), pH 7.4, 37° C. and with continuous circulation of 5% CO2. The medium was changed every 2 days and the cells were trypsinized with trypsin/EDTA when reaching 80%-90% confluence.\n(§2) A549 and Anti-Dox-A549 were treated by the following treatment (Table 1) for 24 or 48 hr for examining the effects of HCD, PG, and Dox on their viability.\n(§3) Dox1is referred as Dox of 1 μM; Dox2.5 is referred as Dox of 2.5 μM; Dox5 is referred as Dox of 5 μM; Dox10 is referred as Dox of 10 μM; Dox100 is referred as Dox of 100 μM. HCD2.5 is referred as HCD of 2.5 μM; HCD10 is referred as HCD of 10 μM; HCD25 is referred as HCD of 25 μM; HCD50 is referred as HCD of 50 μM. PG2.5 is referred as PG of 2.5 μM; PG5 is referred as PG of 5 μM; PG10 is referred as PG of 10 μM; PG20 is referred as PG of 20 μM.\n(§4) In this example, the effects of HCD, PG, and Dox on the viability of A549 and anti-Dox-A549 were examined. The MTT assay was employed for this purpose. The MTT (3-(4-,5-dimethylthiazol-2-yl)-2,5-diphenyltetrazolium bromide) assay is a common colorimetric method in the field for cell viability analysis. MTT (yellow tetrazolium salt) is reduced to a purple formazan by living cells and detection to the purple formazan can be calculated as the cell viability.\n(§5) Briefly, cells (A549 or Anti-Dox-A549) were seeded in 96-well plate (7×10^3 cell per well) and incubated overnight (37° C., 5% CO2)."}, "Anti-Dox-A549 cells [2]": {"test_system": "Anti-Dox-A549 cells", "assay": "MTT assay, cell viability", "conditions": "Homo sapiens, 24 hr treatment", "protocol": "as §1, §2, §3, §4, §5"}, "A549 cells [3]": {"test_system": "A549 cells", "assay": "Cell cycle analysis by flow cytometer (PI staining)", "conditions": "for G0/G1 (%) / G2/M (%) / S (%) / Sub G1 (%): 24 hr, Table 7 (head prints Anti-Dox-A549; b90: A549 cells)", "protocol": "(§6) The results of Example 2 in cell viability hinted the effects of HCD, PG, and Dox on arresting cell cycle. In this example, the phase of cell cycle of A549 cells and Anti-Dox-A549 cells after the treatment listed in Table 1 was determined by flow cytometer. Briefly, 7×10^4 cells per well were to inoculated in 12-wells plate and incubated overnight at 37° C., 5% CO2. Then, cells were treated according to the treatment listed in Table 1 by indicated time period. After treatment, cells were harvested by trypsin and fixed with 70% ethanol at −20° C. for at least 3 hr. The cells were washed in cold PBS twice and then incubated with 1 ml (v/v) staining solution (20 μg/m1 propidium iodide (PI), 0.1% Triton X-100, 0.2 mg/ml Rnase) at 37° C. for 30 minutes. Lastly, cells were analyzed by flow cytometer (Cytomics™ FC500, Backman, Fullerton, Calif., USA). Data from 10,000 cells were collected for each experimental group."}, "Anti-Dox-A549 cells [4]": {"test_system": "Anti-Dox-A549 cells", "assay": "Cell cycle analysis by flow cytometer (PI staining)", "conditions": "for G0/G1 (%) / G2/M (%) / S (%) / Sub G1 (%): 24 hr, Anti-Dox-A549 (Table 6)", "protocol": "as §6"}},
  "data": [
    {"molecule": "COc1cccc2c1C(=O)c1c(O)c3c(c(O)c1C2=O)C[C@@](O)(C(=O)CO)C[C@@H]3O[C@H]1C[C@H](N)[C@H](O)[C@H](C)O1", "note": "[Dox, Doxorubicin]", "values": [
      {"measurement": "IC50", "setting": "A549 cells [1]", "value": "5 to 10", "unit": "µM"},
      {"measurement": "IC50", "setting": "Anti-Dox-A549 cells [2]", "value": "~100", "unit": "µM"},
      {"measurement": "cell cycle effect", "setting": "A549 cells [3]; A549 cells, Dox 5, 10, or 20 μM (Table 7)", "value": "increased at Sub G1 phase and showed cell arrest at sub G1 phase"},
      {"measurement": "G0/G1 (%)", "setting": "A549 cells [3]; Dox 5 μM", "value": "50.3 ± 0.9", "unit": "%"},
      {"measurement": "G2/M (%)", "setting": "A549 cells [3]; Dox 5 μM", "value": "15.2 ± 1.6", "unit": "%"},
      {"measurement": "S (%)", "setting": "A549 cells [3]; Dox 5 μM", "value": "23.5 ± 0.7", "unit": "%"},
      {"measurement": "Sub G1 (%)", "setting": "A549 cells [3]; Dox 5 μM", "value": "5.8 ± 0.5", "unit": "%"},
      {"measurement": "G0/G1 (%)", "setting": "A549 cells [3]; Dox 10 μM", "value": "50.2 ± 1.4", "unit": "%"},
      {"measurement": "G2/M (%)", "setting": "A549 cells [3]; Dox 10 μM", "value": "17 ± 0.3", "unit": "%"},
      {"measurement": "S (%)", "setting": "A549 cells [3]; Dox 10 μM", "value": "20.3 ± 0.9", "unit": "%"},
      {"measurement": "Sub G1 (%)", "setting": "A549 cells [3]; Dox 10 μM", "value": "7.4 ± 2.3", "unit": "%"},
      {"measurement": "G0/G1 (%)", "setting": "A549 cells [3]; Dox 20 μM", "value": "37.3 ± 2.1", "unit": "%"},
      {"measurement": "G2/M (%)", "setting": "A549 cells [3]; Dox 20 μM", "value": "21.5 ± 1.6", "unit": "%"},
      {"measurement": "S (%)", "setting": "A549 cells [3]; Dox 20 μM", "value": "23.5 ± 0.7", "unit": "%"},
      {"measurement": "Sub G1 (%)", "setting": "A549 cells [3]; Dox 20 μM", "value": "9.0 ± 0.8", "unit": "%"},
      {"measurement": "cell cycle effect", "setting": "Anti-Dox-A549 cells [4]; Anti-Dox-A549 cells, Dox 5, 10, or 20 μM (Table 6)", "value": "increased at Sub G1 phase and showed cell arrest at S phase"},
      {"measurement": "G0/G1 (%)", "setting": "Anti-Dox-A549 cells [4]; Dox 5 μM", "value": "54.7 ± 1.3", "unit": "%"},
      {"measurement": "G2/M (%)", "setting": "Anti-Dox-A549 cells [4]; Dox 5 μM", "value": "9.9 ± 0.7", "unit": "%"},
      {"measurement": "S (%)", "setting": "Anti-Dox-A549 cells [4]; Dox 5 μM", "value": "24.1 ± 0.5", "unit": "%"},
      {"measurement": "Sub G1 (%)", "setting": "Anti-Dox-A549 cells [4]; Dox 5 μM", "value": "6.4 ± 0.6", "unit": "%"},
      {"measurement": "G0/G1 (%)", "setting": "Anti-Dox-A549 cells [4]; Dox 10 μM", "value": "62.8 ± 0.6", "unit": "%"},
      {"measurement": "G2/M (%)", "setting": "Anti-Dox-A549 cells [4]; Dox 10 μM", "value": "9.4 ± 0.9", "unit": "%"},
      {"measurement": "S (%)", "setting": "Anti-Dox-A549 cells [4]; Dox 10 μM", "value": "19.9 ± 0.1", "unit": "%"},
      {"measurement": "Sub G1 (%)", "setting": "Anti-Dox-A549 cells [4]; Dox 10 μM", "value": "4.6 ± 0.3", "unit": "%"},
      {"measurement": "G0/G1 (%)", "setting": "Anti-Dox-A549 cells [4]; Dox 20 μM", "value": "58.1 ± 3.4", "unit": "%"},
      {"measurement": "G2/M (%)", "setting": "Anti-Dox-A549 cells [4]; Dox 20 μM", "value": "12.4 ± 1.5", "unit": "%"},
      {"measurement": "S (%)", "setting": "Anti-Dox-A549 cells [4]; Dox 20 μM", "value": "18.7 ± 0.4", "unit": "%"},
      {"measurement": "Sub G1 (%)", "setting": "Anti-Dox-A549 cells [4]; Dox 20 μM", "value": "6.2 ± 0.6", "unit": "%"}
    ]}
  ]
}
